According to patent US6743618B2, “Thermostable proteolytic enzymes and uses thereof in peptide and protein synthesis” (University of Florida Research Foundation, Inc., priority 1996, dated 2004):
Non-standard residues stand in square brackets, D forms with d. Residues, ends and D or L forms follow the SMILES beside them. *: point of attachment. pNA = O=[N+]([O-])c1ccc(N*)cc1; Cbz = O=C(OCc1ccccc1)*; Bz = O=C(c1ccccc1)*

What was measured:
[1] = biological target: T1, P. furiosus protease (Pyrococcus furiosus, UniProt Q8U3Y3); experiment: Hydrolysis kinetics of synthetic peptide and ester substrates (progress curve / initial velocity analysis); assay type: biochemical; settings: for Ki: read-out: Ki (product inhibition constant)
T1 sequence (Q8U3Y3 entry or part of it): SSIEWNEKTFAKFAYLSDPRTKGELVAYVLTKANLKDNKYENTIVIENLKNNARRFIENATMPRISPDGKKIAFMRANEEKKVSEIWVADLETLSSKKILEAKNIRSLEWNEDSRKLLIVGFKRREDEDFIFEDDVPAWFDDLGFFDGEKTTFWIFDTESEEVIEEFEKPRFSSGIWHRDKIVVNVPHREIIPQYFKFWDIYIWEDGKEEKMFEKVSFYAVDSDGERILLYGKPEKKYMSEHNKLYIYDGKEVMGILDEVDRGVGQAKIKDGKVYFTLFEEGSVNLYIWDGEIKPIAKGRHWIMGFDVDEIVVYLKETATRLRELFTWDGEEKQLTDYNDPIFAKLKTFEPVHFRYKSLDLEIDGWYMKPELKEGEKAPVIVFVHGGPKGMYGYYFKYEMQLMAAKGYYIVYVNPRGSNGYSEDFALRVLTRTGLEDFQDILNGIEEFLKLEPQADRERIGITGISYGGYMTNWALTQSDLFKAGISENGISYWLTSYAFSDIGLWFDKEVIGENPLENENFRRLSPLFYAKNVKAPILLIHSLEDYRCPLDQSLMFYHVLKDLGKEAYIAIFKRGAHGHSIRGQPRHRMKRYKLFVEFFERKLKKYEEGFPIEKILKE
Source text: (§1) The hydrolysis kinetics of various synthetic peptide and ester protease substrates were studied. Two different methods have been used to analyze the kinetic properties of the enzyme. The first utilized initial velocity data at several substrate concentrations with analysis by plotting s/v νs s (Hanes plot). This method was always used when it was possible that the protease could cleave at more than one site (e.g., PPANA). The second method utilizes all data of the progress curve of the reaction. Progess curves were analyzed in two ways:
(§2) Instantaneous point by point derivatives were calculated from the absorbance νs time data by fitting 10 points spaced 1 second apart by least squares to a second degree polynomial. Derivatives were computed analytically and were used to construct plots of v νs s, which were then analyzed by non-linear regression to obtain Km, kcat and any product inhibition constant (Ki) if it exists. […] For all measurements at elevated temperature, the first-order rate constants for non-enzymic hydrolysis were determined for all substrates. The analytic method described here was used both for reactions at 25.0° C. and 80.0° C.
(§3) For these analyses, the integrated Michaelis-Menten equation was used, but not in linearized form, for reasons relating to product inhibition. Plots of time (now the dependent variable) νs absorbance were constructed from the raw data and analyzed by non-linear regression. […] This method was used for analyses at 25.0° C. only.
(§4) All kinetic studies utilized a Cary 3E double beam spectrophotometer and absorbance νs time data were collected by computer at 1 second intervals. In cases where a peptide substrate could potentially be cleaved at more than one site, thin-layer chromatography was used to establish the products formed (silica gel; butanol:acetone:NH4OH:water—37:37:19:7).
(§5) All of the above are mean values from at least 4 separate experiments. Except for PPANA, values are means of v νs s and integrated rate equation analyses. PPANA values were obtained from initial velocity measurements, analyzed by the Hanes equation. Solvent: 0.025 M Na Phosphate, pH 7.0. […] N. D. means not determined.

[2] = test system: Pyrococcus furiosus serine protease (carboxypeptidase/endopeptidase), native, about 81 kDa, N-terminus SEQ ID NO: 1; experiment: Kinetic studies and substrate specificity (hydrolysis of synthetic peptide and ester substrates; progress curves, Hanes plot); assay type: biochemical; settings: for hydrolysis by the protease / product inhibition, Ki compared with Km: in words; for hydrolysis by the protease: at up to 80° C. for arg-pNA (TLC), Table 3 lists HA and ZGP at 25.0° C.; for Km / kcat: 0.025 M Na phosphate, pH 7.0, mean of at least 4 experiments (PPANA: initial velocities, Hanes equation)
Source text: as §1, §2
b. Integrated Rate Equation Analyses: t νs Absorbance
as §3
Subroutines for the above analyses were written to analyze the kinetic data for: product competitive inhibition, non-competitive inhibition, 2-product inhibition, and simple Michaelis-Menten kinetics. An HP 9000 series work station was used for this purpose, using HP BASIC.
as §4, §5

[3] = biological target: T1, P. furiosus protease; experiment: Active site inhibitor studies, BAPNA as substrate; assay type: biochemical
Source text: (§6) To assign the class of protease to which the P. furiosus protease belongs, several reagents were used to identify catalytically important residues.
b. […] This reagent reacts rapidly and specifically with the active site histidine residue of the active site triad: ser-his-asp (Shaw, E. “Site-Specific Reagents for Chymotrypsin and Trypsin.” […]. 11:677-686, 1967).

[4] = test system: Pyrococcus furiosus serine protease, native, about 81 kDa, N-terminus SEQ ID NO: 1; experiment: Active site inhibitor studies (BAPNA as substrate); assay type: biochemical; settings: 10^−3 M, incubation for 24 hr
Protocol: as §6
a. Incubation of the enzyme with 10^−3 M EDTA for 24 hr had no effect upon enzyme activity.
b. One of the active-site inhibitors of mesophilic serine proteases is phe-pro-argCH2Cl. This reagent reacts rapidly and specifically with the active site histidine residue of the active site triad: ser-his-asp (Shaw, E. “Site-Specific Reagents for Chymotrypsin and Trypsin.” […]. 11:677-686, 1967).

[5] = biological target: T1, P. furiosus protease; experiment: Activation enthalpy and entropy from Arrhenius plots of initial velocities; assay type: biochemical
Protocol: For all kinetic experiments at high temperatures, sodium phosphate (0.025 M) was used as a buffer.
To explore the basis for the extremely large increases in enzyme activity with temperature, initial velocity (vo) measurements were made at 6 different substrate concentrations in order to determine kcat and Km at a series of temperatures in the range of 25.0 to 83.5° C. Temperature was controlled to within ±0.5° C. with a large water bath and jacketed cuvettes. Two substrates were used for these experiments—BAPNA and D-pro-phe-arg-pNA(PPANA).
Within the temperature range accessible to mesophilic enzymes, such plots are linear. […] The data was fitted to a second degree polynomial and the slopes determined as a function of temperature to compute Arrhenius activation energies. These values were used to compute activation enthalpy (ΔH*) and entrophy (ΔS*) as a function of temperature (Eyring, H. (1963) Modern Chemical Kinetics, Rheinhold, N.Y.).

[6] = test system: trypsin; experiment: BAPNA hydrolysis by trypsin (comparison); assay type: biochemical; settings: BAPNA as substrate, same conditions (25.0 °C)
[7] = biological target: T1, P. furiosus protease; experiment: Product inhibition: initial rate measurements of BAPNA with varying product concentrations; assay type: biochemical
[8] = pK values used to calculate theoretical yield; assay type: physicochemical; settings: for pK2: amine nucleophile; for pK1: carboxyl reactant
Protocol: Yield is defined as the ratio of product concentration to the initial concentration of the carboxyl reactant (in percent). Theoretical yield was calculated from equations 1, 2 and 3 together with pK1=3.81 (ZGL) and 4.47 (ZGE); pK2=7.93 (leu-NH2) and 7.51 (arg-NH2).

[9] = test system: serine protease of the subject invention; experiment: Digestion of insulin B-chain, products by TLC; assay type: biochemical, Pyrococcus furiosus; settings: 80° C., phosphate buffer, pH 7.0, 1 hour
Protocol: Treatment of the insulin B-chain with the serine protease of the subject invention (80° C., phosphate buffer, pH 7.0) for 1 hour yields 5 ninhydrin-positive components by TLC. No non-enzyme hydrolysis of substrate was detected after this time period. One of the new components is alanine which the carboxy terminus of the B-chain. None of the others is a free amino acid. These studies with insulin provide further evidence that the enzyme is an endopeptidase.

[10] = 25.0 °C, 0.025 M Na phosphate, pH 7.0, total progress curve analyses
[11] = 25.0 °C, BAPNA substrate, sodium phosphate 0.025 M pH 7.0, iodoacetamide 100-fold molar excess

N=C(N)NCCC[C@H](NC(=O)CNC(=O)c1ccccc1)C(=O)O [HA, hippuryl-arginine] (Bz-Gly-Arg-OH)
hydrolysis by the enzyme ([1]; 25.0 °C): Remain Unaltered | hydrolysis by the protease [2]: Remain Unaltered by the Enzyme

O=C(O)CN(CCN(CC(=O)O)CC(=O)O)CC(=O)O [EDTA]
effect upon enzyme activity [3]: no effect | effect upon enzyme activity [4]: no effect

N=C(N)NCCC[C@H](NC(=O)[C@@H]1CCCN1C(=O)[C@H](N)Cc1ccccc1)C(=O)CCl [phe-pro-argCH2Cl]
pseudo first order inactivation rate constant ([3]; inhibitor 1.98×10^−6 M, BAPNA 3.8×10^−4 M, 25.0 °C): 0.022 s⁻¹

O=S(=O)(F)Cc1ccccc1 [PMSF, phenyl-methyl-sulfonyl fluoride]
inhibition of enzyme activity ([3]; 8×10^3 molar excess over enzyme, BAPNA substrate, 25.0 °C): complete inhibition

O=C(CNC(=O)OCc1ccccc1)N[C@@H](Cc1ccccc1)C(=O)O [ZGP, carbobenzoxy-gly-phe] (Cbz-Gly-Phe-OH)
hydrolysis by the enzyme ([1]; 25.0 °C): Remain Unaltered | hydrolysis by the protease [2]: Remain Unaltered by the Enzyme

N=C(N)NCCC[C@H](NC(=O)c1ccccc1)C(=O)Nc1ccc([N+](=O)[O-])cc1 [BAPNA, N-benzoyl-L-arginine-p-nitroanilide]
Ki compared with Km ([1]; 25.0 °C): Ki<Km | Ki times less than Km ([1]; 25.0 °C, Table 3): 10 | Ki [1, 10]: 70.8 µM | kcat at 80° C. relative to 25° C. (times greater) ([1]; 80 °C vs 25 °C): 65 | Ki ([1]; 80.0 °C, 0.025 M Na phosphate, pH 7.0, progress curve analysis): 220 µM | ΔH* (activation enthalpy) ([5]; 25.0 °C): 17.2 kcal/mol | ΔS* (activation entropy) ([5]; 25.0 °C): 2.2 e.u | ΔH* (activation enthalpy) ([5]; 80.0 °C): 3.1 kcal/mol | ΔS* (activation entropy) ([5]; 80.0 °C): −41.7 e.u | kcat [6]: 2.7 s⁻¹

O=C(O)c1cc(SSc2ccc([N+](=O)[O-])c(C(=O)O)c2)ccc1[N+](=O)[O-] [bisdithiodintrobenzene]
effect upon the activity of the enzyme [3, 11]: no effect whatsoever

Nc1ccc([N+](=O)[O-])cc1 [p-nitroaniline]
inhibition by added product ([7]; concentrations as high as 5×10^−4 M, initial rates of BAPNA): no detectable inhibition

CC(NC(=O)C(Cc1ccccc1)NC(=O)OCc1ccccc1)C(=O)O (centres unmarked) [ZPA, carbobenzoxy-phe-ala]
Ki compared with Km ([1]; 25.0 °C): Ki<Km | Ki [1, 10]: 134 µM

C[C@H](NC(=O)/C=C/c1ccco1)C(=O)N[C@@H](Cc1ccccc1)C(N)=O [FAAPA, furyl-acryloyl-ala-phe-amide]
Km ([2]; 25.0° C.): 38.6 µM | kcat ([2]; 25.0° C.): 7.31 s⁻¹ | product inhibition, Ki compared with Km [2]: Ki<Km

CC(C)C[C@H](N)C(N)=O [leu-NH2]
pK2 [8]: 7.93

N=C(N)NCCC[C@H](NC(=O)c1ccccc1)C(=O)O [benzoyl-L-arginine]
Ki [1, 10]: 70.8 µM | Ki ([7]; initial rate measurements of BAPNA with varying product concentration, read-out: Ki (inhibition constant of added product)): 65 µM

O=C(/C=C/c1ccco1)N[C@@H](Cc1ccccc1)C(=O)N[C@@H](Cc1ccccc1)C(=O)O [FAPP, furyl-acryloyl-phe-phe]
Km ([2]; 25.0° C.): 375 µM | kcat ([2]; 25.0° C.): 4.58 s⁻¹ | product inhibition, Ki compared with Km [2]: product inhibition is not observed

NC(=O)[C@@H](N)CCCN=C(N)N [arg-NH2]
pK2 [8]: 7.51

O=P(O)(O)O [sodium phosphate]
effect upon the activity of the enzyme ([3]; pH 7): no effect whatsoever

insulin B-chain: insulin B-chain, used as a substrate; its carboxy terminus is alanine
ninhydrin-positive components by TLC [9]: 5

N=C(N)NCCC[C@H](NC(=O)[C@H](Cc1ccccc1)NC(=O)[C@H]1CCCN1)C(=O)Nc1ccc([N+](=O)[O-])cc1 [PPANA, D-pro-phe-arg-pNA] (H-[dP]-Phe-Arg-pNA)
ΔH* (activation enthalpy) ([5]; 25.0 °C): 26.1 kcal/mol | ΔS* (activation entropy) ([5]; 25.0 °C): 23.8 e.u | ΔH* (activation enthalpy) ([5]; 80.0 °C): 15.4 kcal/mol | ΔS* (activation entropy) ([5]; 80.0 °C): −9.0 e.u | Km ([2]; 25.0° C.): 477 µM | kcat ([2]; 25.0° C.): .045 s⁻¹ | Km ([2]; 80.0° C.): 499 µM | kcat ([2]; 80.0° C.): 5.44 s⁻¹ | kcat ratio 80° C./25° C. ([2]; kcat at 80° C. vs 25° C.): 120 times

NC(=O)CI [iodoacetamide]
effect upon the activity of the enzyme [3, 11]: no effect whatsoever

O=C(O)CC[C@H](NC(=O)CNC(=O)OCc1ccccc1)C(=O)O [ZGE, Z-gly-glu] (Cbz-Gly-Glu-OH)
pK1 [8]: 4.47

CC(C)CC(NC(=O)CNC(=O)OCc1ccccc1)C(=O)O (centres unmarked) [ZGL, Z-gly-leu]
pK1 [8]: 3.81

N=C(N)NCCC[C@H](N)C(=O)Nc1ccc([N+](=O)[O-])cc1 [arg-pNA]
hydrolysis by the protease (TLC) ([1]; even at 80° C.): does not hydrolyze | hydrolysis by the protease [2]: does not hydrolyze arg-pNA at all, even at 80 °C

O=C(O)CNC(=O)CNC(=O)[C@H](Cc1ccccc1)NC(=O)/C=C/c1ccco1 [FAPGG, furyl-acryloyl-phe-gly-gly]
Km ([2]; 25.0° C.): 415 µM | kcat ([2]; 25.0° C.): 10.64 s⁻¹ | product inhibition, Ki compared with Km [2]: No product inhibition is observed

CCOC(=O)[C@H](Cc1ccc(O)cc1)NC(=O)c1ccccc1 [BTEE, benzoyl-tyrosine ethyl ester]
Ki [1, 10]: 5600 µM

CC(C)C[C@H](NC(=O)CNC(=O)/C=C/c1ccco1)C(N)=O [FAGLA, furyl-acryloyl-glycyl-leucine amide]
Ki compared with Km ([1]; 25.0 °C): Ki<Km | product inhibition ([1]; 25.0 °C): intense product inhibition | Km ([1]; 25.0 °C, 0.025 M Na phosphate, pH 7.0, PPANA from initial velocities (Hanes)): 6.08 µM | kcat ([1]; 25.0 °C, 0.025 M Na phosphate, pH 7.0, means of at least 4 experiments, PPANA from initial velocities (Hanes)): 0.67 s⁻¹
